Legend:
[1] = biological target: FLT3 (Homo sapiens (Human), UniProt P36888); assay: HotSpot radiometric kinase assay (Reaction Biology); type: biochemical
[2] = biological target: PIM1 (Homo sapiens (Human), UniProt P11309); assay: as above; type: biochemical
Protocol: (§1) Briefly, specific kinase/substrate pairs along with required cofactors were prepared in reaction buffer; 20 mM Hepes pH 7.5, 10 mM MgCl2, 1 mM EGTA, 0.02% Brij35, 0.02 mg/ml BSA, 0.1 mM Na3VO4, 2 mM DTT, 1% DMSO. Compounds were delivered into the reaction, followed ˜20 minutes later by addition of a mixture of ATP (Sigma, St. Louis MO) and ^33P ATP (Perkin Elmer, Waltham MA) to a final concentration of […]. Reactions were carried out at room temperature for 120 min, followed by spotting of the reactions onto P81 ion exchange filter paper (Whatman Inc., Piscataway, NJ). Unbound phosphate was removed by extensive washing of filters in 0.75% phosphoric acid. […] IC50 values and curve fits were obtained using Prism (GraphPad Software).

[3] = biological target: PIM2 (Homo sapiens (Human), UniProt Q9P1W9); assay: as above; type: biochemical
Chain of PIM2 (Q9P1W9 whole entry): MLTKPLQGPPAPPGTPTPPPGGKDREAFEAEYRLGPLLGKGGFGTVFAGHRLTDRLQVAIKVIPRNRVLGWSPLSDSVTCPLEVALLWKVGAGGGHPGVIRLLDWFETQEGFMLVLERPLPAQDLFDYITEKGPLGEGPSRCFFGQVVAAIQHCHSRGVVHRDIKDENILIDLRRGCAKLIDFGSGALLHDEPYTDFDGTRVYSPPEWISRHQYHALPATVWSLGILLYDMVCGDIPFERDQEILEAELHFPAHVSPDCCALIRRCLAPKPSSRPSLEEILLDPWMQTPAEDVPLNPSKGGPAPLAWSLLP
Protocol: as §1

[4] = biological target: PIM3 (Homo sapiens (Human), UniProt Q86V86); assay: as above; type: biochemical
Protocol: as §1

[5] = biological target: CLK1 (Homo sapiens (Human), UniProt P49759); assay: CLK kinase activity assay (ADP-Glo); type: biochemical
Chain of CLK1 (P49759 whole entry): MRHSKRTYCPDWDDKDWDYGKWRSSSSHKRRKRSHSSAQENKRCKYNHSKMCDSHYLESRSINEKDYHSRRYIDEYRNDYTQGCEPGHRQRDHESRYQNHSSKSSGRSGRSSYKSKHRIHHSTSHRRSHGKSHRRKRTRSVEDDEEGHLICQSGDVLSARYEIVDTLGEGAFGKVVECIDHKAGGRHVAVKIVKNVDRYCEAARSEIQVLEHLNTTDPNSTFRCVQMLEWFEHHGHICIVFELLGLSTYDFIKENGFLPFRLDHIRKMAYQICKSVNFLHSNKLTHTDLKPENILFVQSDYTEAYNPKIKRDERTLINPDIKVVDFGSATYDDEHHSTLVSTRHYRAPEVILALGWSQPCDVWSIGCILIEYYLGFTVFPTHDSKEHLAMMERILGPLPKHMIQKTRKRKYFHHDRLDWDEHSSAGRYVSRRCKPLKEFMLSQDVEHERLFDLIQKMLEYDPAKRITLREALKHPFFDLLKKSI
Protocol: (§2) Kinase protein and substrate were pre-diluted in the HEPES assay buffer (100 mM HEPES, pH 7.5, 0.01% Triton X-100, 0.1% BSA, 5 mM MgCl2, 1 mM DTT, 10 μM Sodium Orthovanadate, 10 μM Beta-Glycerophosphate) dispensed into 384 well plate (5 μL per well). Control samples (0%-inhibition in the absence of inhibitor, DMSO only) and 100%-inhibition (in the absence of enzyme) were assembled in replicates of six and were used to calculate %-inhibition in the presence of compounds. Test compounds were added to the protein samples by acoustic dispensing (Labcyte Echo550). Concentration of DMSO was equalized to 1% in all samples. Reactions were initiated by addition of ATP by acoustic dispensing (Labcyte Echo550) and incubated according to assay specific incubation time. After incubation, 5 uL of Promega ADP-Glo reagent was added and incubated for 40 minutes. After 40 minutes, 10 uL of Promega kinase detection reagent was added. After 10 min of incubation with Kinase detection reagent, the luminescence was read on microplate reader (Biotek Synergy).

[6] = biological target: CLK2 (Homo sapiens (Human), UniProt P49760); assay: CLK kinase activity assay (ADP-Glo); type: biochemical
Chain of CLK2 (P49760 whole entry): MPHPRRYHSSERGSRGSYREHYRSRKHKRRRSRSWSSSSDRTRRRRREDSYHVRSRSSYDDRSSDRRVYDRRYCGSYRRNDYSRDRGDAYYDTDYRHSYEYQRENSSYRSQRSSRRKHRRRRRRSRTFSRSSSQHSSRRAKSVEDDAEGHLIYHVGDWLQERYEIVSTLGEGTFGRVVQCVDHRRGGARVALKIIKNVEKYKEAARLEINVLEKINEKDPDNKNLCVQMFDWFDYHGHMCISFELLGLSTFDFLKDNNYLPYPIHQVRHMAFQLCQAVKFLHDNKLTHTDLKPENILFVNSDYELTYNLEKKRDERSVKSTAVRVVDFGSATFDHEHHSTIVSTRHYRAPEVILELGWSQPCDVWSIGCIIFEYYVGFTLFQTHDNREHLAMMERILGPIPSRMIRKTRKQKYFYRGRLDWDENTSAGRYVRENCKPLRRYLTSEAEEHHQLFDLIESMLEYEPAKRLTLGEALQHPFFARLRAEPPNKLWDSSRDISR
Protocol: as §2

[7] = biological target: CLK3 (Homo sapiens (Human), UniProt P49761); assay: CLK kinase activity assay (ADP-Glo); type: biochemical
Chain of CLK3 (P49761 whole entry): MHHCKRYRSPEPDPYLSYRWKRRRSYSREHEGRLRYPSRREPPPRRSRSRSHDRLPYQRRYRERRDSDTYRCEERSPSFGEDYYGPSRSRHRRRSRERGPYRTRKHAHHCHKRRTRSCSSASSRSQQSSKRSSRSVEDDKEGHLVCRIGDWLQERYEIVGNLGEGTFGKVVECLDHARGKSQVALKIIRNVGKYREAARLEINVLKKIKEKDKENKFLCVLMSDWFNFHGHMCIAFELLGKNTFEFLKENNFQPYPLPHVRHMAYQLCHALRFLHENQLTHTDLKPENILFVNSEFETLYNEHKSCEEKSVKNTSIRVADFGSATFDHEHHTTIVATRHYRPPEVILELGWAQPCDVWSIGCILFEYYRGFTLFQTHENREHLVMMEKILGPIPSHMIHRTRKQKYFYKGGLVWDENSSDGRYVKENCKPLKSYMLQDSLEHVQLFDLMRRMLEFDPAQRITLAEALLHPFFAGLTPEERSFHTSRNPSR
Protocol: as §2

[8] = biological target: CLK4 (Homo sapiens (Human), UniProt Q9HAZ1); assay: CLK kinase activity assay (ADP-Glo); type: biochemical
Chain of CLK4 (Q9HAZ1 whole entry): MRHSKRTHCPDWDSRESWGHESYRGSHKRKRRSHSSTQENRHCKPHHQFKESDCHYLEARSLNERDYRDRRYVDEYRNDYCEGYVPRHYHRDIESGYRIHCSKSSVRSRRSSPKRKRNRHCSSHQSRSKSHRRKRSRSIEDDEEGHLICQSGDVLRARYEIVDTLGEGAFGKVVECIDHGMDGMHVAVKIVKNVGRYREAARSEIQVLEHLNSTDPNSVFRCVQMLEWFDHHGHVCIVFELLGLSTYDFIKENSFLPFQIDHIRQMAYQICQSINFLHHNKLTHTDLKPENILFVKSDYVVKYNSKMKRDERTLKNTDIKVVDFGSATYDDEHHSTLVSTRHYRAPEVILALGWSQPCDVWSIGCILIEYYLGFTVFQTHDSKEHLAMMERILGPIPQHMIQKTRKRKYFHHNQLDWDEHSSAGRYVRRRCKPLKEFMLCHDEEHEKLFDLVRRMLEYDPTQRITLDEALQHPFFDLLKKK
Protocol: as §2

[9] = tested on: MV-4-11 cells; assay: MV-4-11 cell proliferation assay (CellTiter-Glo 2.0); type: cell-based; details: MV-4-11, 384-well, 11-dose dilution series; read-out: IC50, inhibition of MV-4-11 cell proliferation
Protocol: MV-4-11 cell line was purchased from ATCC and maintained in RPMI medium supplemented with 10% fetal bovine serum and 100 U/mL of penicillin/streptomycin. One thousand MV-4-11 cells/50 μl per well were seeded in white 384-well plate, followed by treatment with indicated compounds in a 11-dose dilution series. Cell proliferation was measured using CellTiter-Glo 2.0 luciferase-based ATP detection assay (Promega, Madison, WI) following the manufacturer's protocol. Plates were then read on a TECAN Sparks multimode microplate reader. Data was analyzed using GraphPad Prism 9 (GraphPad Software, San Diego, CA) to obtain IC50 values.

[10] = tested on: Phospho-S6 Ribosomal Protein (S235/236); assay: Inhibition of kinase phosphorylation by Western Blot in MOLM-13; type: cell-based; details: MOLM-13 cells, 4 hour-incubation; read-out: pS6 MOLM-13 IC50
Protocol: (§3) Inhibition of kinase phosphorylation assay was performed by Western Blot using MV-4-11 and MOLM13 cell lines. Cells were plated in 24 well plates at 1 million cells per well and then treated with compounds at different concentrations, starting at 100 nM, 1:4 titration with DMSO as control. After 4 hour-incubation, cells were washed once with ice-cold PBS, and lysed in RIPA lysis buffer with protease and phosphatase inhibitors. The cell lysates were then sonicated and spun down, and 40 μg of proteins were separated by sodium dodecyl sulfate electrophoresis on a 4 to 12% Bis-Tris polyacrylamide gel and transferred onto nitrocellulose membranes using Bio-Rad Trans-Blot Turbo Transfer System (Bio-Rad). Blocking was performed using 3% BSA or 5% Non-fat dry milk (Fisher Scientific) in TBST (Tris-buffered saline containing 0.05% of Tween 20) (Bio-Rad Laboratories, Inc.). The membranes were incubated overnight with anti-phospho-FLT3 (Y589/Y591) (CST #60413), anti-phospho-STAT5 (Y694) (CST #4322), anti-Phospho-p44/42 MAPK (Erk1/2) (T202/Y204) (CST #9101), anti-Phospho-S6 Ribosomal Protein (S235/236) (CST #4858) and anti-β-Actin (CST #8457) each diluted 1000 times in 3% BSA in TBST. Membranes were washed with TBST and then incubated at room temperature for 1 hour with HRP-labeled anti-rabbit IgG polyclonal antibody (CST #7074) diluted 1000 times in 3% BSA. After TBST washing, blots were developed with a chemiluminescence system (SuperSignal West Femto Maximum Sensitivity Substrate, Pierce #34095). Luminescence was detected by LI-COR Odyssey M imaging system and luminescence intensity were quantified using Empiria Studio 2.2 software. Data was analyzed using GraphPad Prism 9 (GraphPad Software, San Diego, CA) to obtain IC50 values.

[11] = tested on: Phospho-p44/42 MAPK (Erk1/2) (T202/Y204); assay: as above; type: cell-based; details: MOLM-13 cells, 4 hour-incubation; read-out: pERK MOLM-13 IC50
Protocol: as §3

[12] = tested on: phospho-STAT5 (Y694); assay: as above; type: cell-based; details: MOLM-13 cells, 4 hour-incubation; read-out: pSTAT5 MOLM-13 IC50
Protocol: as §3

Chain of PIM1 (P11309 whole entry): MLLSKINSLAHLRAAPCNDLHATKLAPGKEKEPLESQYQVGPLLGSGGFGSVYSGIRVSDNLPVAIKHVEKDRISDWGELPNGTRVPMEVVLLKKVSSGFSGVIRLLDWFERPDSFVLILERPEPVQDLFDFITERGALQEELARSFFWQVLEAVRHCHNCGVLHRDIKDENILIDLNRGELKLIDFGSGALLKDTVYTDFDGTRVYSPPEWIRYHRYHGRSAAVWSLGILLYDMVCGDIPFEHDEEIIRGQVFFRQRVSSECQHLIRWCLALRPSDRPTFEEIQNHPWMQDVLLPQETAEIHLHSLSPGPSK
Chain of FLT3 (P36888 27-993): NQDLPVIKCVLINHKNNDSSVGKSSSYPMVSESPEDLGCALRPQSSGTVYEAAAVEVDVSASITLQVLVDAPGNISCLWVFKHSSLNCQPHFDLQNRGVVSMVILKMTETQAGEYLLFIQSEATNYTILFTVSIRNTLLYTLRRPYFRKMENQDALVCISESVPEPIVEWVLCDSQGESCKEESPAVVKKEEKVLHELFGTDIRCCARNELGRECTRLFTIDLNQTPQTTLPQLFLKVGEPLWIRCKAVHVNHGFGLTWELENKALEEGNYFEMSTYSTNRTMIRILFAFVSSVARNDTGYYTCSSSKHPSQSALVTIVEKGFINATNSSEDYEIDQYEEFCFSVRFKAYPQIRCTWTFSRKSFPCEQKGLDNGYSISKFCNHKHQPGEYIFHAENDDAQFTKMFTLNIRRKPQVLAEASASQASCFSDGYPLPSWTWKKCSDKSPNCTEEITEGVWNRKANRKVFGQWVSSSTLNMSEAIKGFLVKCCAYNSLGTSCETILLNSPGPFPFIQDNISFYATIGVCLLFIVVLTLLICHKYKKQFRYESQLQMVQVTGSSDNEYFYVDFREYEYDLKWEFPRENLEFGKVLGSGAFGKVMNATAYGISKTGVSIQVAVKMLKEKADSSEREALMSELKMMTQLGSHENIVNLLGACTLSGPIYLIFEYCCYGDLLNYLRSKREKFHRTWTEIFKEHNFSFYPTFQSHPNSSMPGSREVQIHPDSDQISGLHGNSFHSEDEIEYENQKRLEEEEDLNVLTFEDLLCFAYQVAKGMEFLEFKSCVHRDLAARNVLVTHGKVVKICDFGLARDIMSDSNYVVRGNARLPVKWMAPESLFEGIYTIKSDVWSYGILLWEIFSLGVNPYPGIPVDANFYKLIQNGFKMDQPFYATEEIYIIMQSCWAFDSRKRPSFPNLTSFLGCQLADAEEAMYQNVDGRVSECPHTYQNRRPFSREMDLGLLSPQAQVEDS

IC50 [1]: 0.088 nM
IC50 [2]: 2.65 nM
IC50 [3]: 5.68 nM
IC50 [4]: 0.115 nM
IC50 [5]: 0.134 nM
IC50 [6]: 0.165 nM
IC50 [7]: 5.87 nM
IC50 [8]: 0.446 nM
IC50 [9]: 0.3 nM
IC50 [10]: 2.47 nM
IC50 [11]: 4.11 nM
IC50 [12]: 0.72 nM
SMILES: CCc1nn(C)c2c1/C=C/c1n[nH]c3ccc(cc13)-c1cnn(C)c1OCCN(C)C2=O [Ex. 6, (17E)-16-ethyl-8,12,14-trimethyl-2,11,12,14-tetrahydro-8H-3,5-ethenotripyrazolo[3,4-f:3′,4′-j:4″,3″-n][1,4]oxazacyclopentadecin-13(10H)-one]
